Experimental data from US20090305993A1, “METHODS AND COMPOSITION FOR THE TREATMENT OF GASTROINTESTINAL DISORDERS” (IRONWOOD PHARMACEUTICALS, INC., priority 2006, published 2009).
Where a SMILES comes first, the peptide text is derived from it. Bridges are numbered along the chain shown (N, C = ends).

Tests used:
pepsin = pepsin (Sus scrofa, UniProt P00791); conditions: pH 2.0, 37° C., up to 3 h
Experimental: Samples were collected at 0, 3, and 24 h for all conditions except pepsin digestion and the SGF. For the latter two conditions, samples were obtained at 0, 1, and 3 h. Negative control samples were prepared for initial and final time points. […] All samples were analyzed by LC/MS
500 μL samples of 100 U/mL pepsin (Pepsin porcine gastric mucosa; Sigma-Aldrich, P68871; U=release of 0.01 absorbance at 280 nm (A280) as TCA soluble hydrolysis products per min at 37° C. of hemoglobin) were prepared in the pepsin reaction buffer (100 mM HCl-KCl, pH 2.0) in 5 mL polystyrene round bottom tubes. To the control samples (0 and 24 h), 500 μL of a 1 M ammonium acetate (pepsin inhibitor) stock were added, for a final concentration of 0.5 M. All control and test samples (0, 1, and 3 h) were incubated at 37° C. for 5 min, while shaking. […] Samples were returned to the 37° C. shaking water bath. Reactions were quenched by the addition of 500 μL of 1 M ammonium acetate for a final concentration of 0.5 M (except to the control samples, which already contained 0.5 M ammonium acetate). Samples were cooled on ice and stored at 4° C. until analysis. Upon analysis, samples were transferred to a 1 mL 96-well plate. […] These standards were used to generate a standard curve for quantification of samples. Ten (10) μL injections were made of each sample and standard.

Male Wistar rats = assay: TNBS visceral hypersensitivity rat model (colorectal distension, EMG); format: in vivo; conditions: 0.3 μg/kg and 3 μg/kg, after TNBS, FIG. 7a
Experimental: Male Wistar rats (220-250 g) were premedicated with 0.5 mg/kg of acepromazine injected intraperitoneally (IP) and anesthetized by intramuscular administration of 100 mg/kg of ketamine. Pairs of nichrome wire electrodes (60 cm in length and 80 μm in diameter) were implanted in the striated muscle of the abdomen, 2 cm laterally from the white line. The free ends of electrodes were exteriorized on the back of the neck and protected by a plastic tube attached to the skin. Electromyographic (EMG) recordings were started 5 days after surgery. Electrical activity of abdominal striated muscle was recorded with an electroencephalograph machine (Mini VIII, Alvar, Paris, France) using a short time constant (0.03 sec.) to remove low-frequency signals (<3 Hz).
Ten days post surgical implantation, trinitrobenzenesulphonic acid (TNBS) was administered to induce rectal inflammation. TNBS (80 mg kg^−1 in 0.3 ml 50% ethanol) was administered intrarectally through a silicone rubber catheter introduced at 3 cm from the anus under light diethyl-ether anesthesia, as described (Morteau et al. 1994 Dig Dis Sci 39:1239). […] Evaluation of rectal sensitivity, as measured by EMG, was performed before (1-2 days) and 3 days following rectal instillation of TNBS.
The number of spike bursts that corresponds to abdominal contractions was determined per 5 min periods. […]

CD1 female mice = assay: murine gastrointestinal transit assay, chronic dosing; format: in vivo, mouse; conditions: oral, daily for 5 days; SEQ ID NO:3 0.06 or 0.25 mg/kg; FIG. 4c
Experimental: The identical experiment was performed to determine if SEQ ID NO:3 is effective in a chronic dosing treatment regimen. Briefly, 8 week old CD1 female mice are dosed orally once a day for 5 days with either SEQ ID NO:3 (0.06 mg/kg or 0.25 mg/kg in 20 mM Tris pH 7.5) or vehicle alone (20 mM Tris pH 7.5). On the 5th day, a GIT assay is performed identical to that above except 200 μl of a 10% charcoal solution is administered. […] The results are shown side by side with acute dosing (1 day).

[1] = bioavailability study in mice, LCMS detection; format: in vivo; conditions: CD1, mouse, serum, IV and oral, FIG. 10b, read-out: bioavailable
Experimental: A similar bioavailability study was performed in which LCMS rather than ELISA was used to detect SEQ ID NO:3. Initially, serum samples were extracted from the whole blood of exposed and control mice, then injected directly ([…]) onto an in-line solid phase extraction (SPE) column (Waters Oasis HLB 25 μm column, 2.0×15 mm direct connect) without further processing. The sample on the SPE column was washed with a 5% methanol, 95% dH2O solution (2.1 mL/min, 1.0 minute), then loaded onto an analytical column using a valve switch that places the SPE column in an inverted flow path onto the analytical column (Waters Xterra MS C8 5 μm IS column, 2.1×20 mm). The sample was eluted from the analytical column with a reverse phase gradient (Mobile Phase A: 10 mM ammonium hydroxide in dH2O, Mobile Phase B: 10 mM ammonium hydroxide in 80% acetonitrile and 20% methanol; 20% B for the first 3 minutes then ramping to 95% B over 4 min. and holding for 2 min., all at a flow rate of 0.4 mL/min.). At 9.1 minutes, the gradient returns to the initial conditions of 20% B for 1 min. SEQ ID NO:3 eluted from the analytical column at 1.45 minutes, and was detected by triple-quadrapole mass spectrometry (MRM, 764 (+2 charge state)>182 (+1 charge state) Da; cone voltage=30V; collision=20 eV; parent resolution=2 Da at base peak; daughter resolution=2 Da at base peak). […]

Chain of pepsin (P00791 60-385): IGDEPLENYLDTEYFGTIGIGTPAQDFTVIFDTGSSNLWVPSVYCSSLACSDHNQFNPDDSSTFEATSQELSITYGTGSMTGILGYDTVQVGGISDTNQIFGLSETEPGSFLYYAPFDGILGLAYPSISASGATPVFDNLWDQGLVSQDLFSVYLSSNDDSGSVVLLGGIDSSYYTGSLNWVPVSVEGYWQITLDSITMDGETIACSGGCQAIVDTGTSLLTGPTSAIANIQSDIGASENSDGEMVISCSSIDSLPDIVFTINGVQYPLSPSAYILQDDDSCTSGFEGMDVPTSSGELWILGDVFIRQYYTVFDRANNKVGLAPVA

**Q.** Which “Cleavage of SEQ ID NO: 3 by proteolytic substance” value (pepsin) does the source give for `C[C@@H]1NC(=O)[C@@H]2CCCN2C(=O)[C@H](CC(N)=O)NC(=O)[C@@H]2CSSC[C@H](N)C(=O)N[C@H]3CSSC[C@H](NC1=O)C(=O)N[C@@H]([C@@H](C)O)C(=O)NCC(=O)N[C@H](C(=O)N[C@@H](Cc1ccc(O)cc1)C(=O)O)CSSC[C@H](NC(=O)[C@H](Cc1ccc(O)cc1)NC(=O)[C@H](CCC(=O)O)NC3=O)C(=O)N2` [SEQ ID NO:3] (H-CCEYCCNPACTGCY-OH; disulfide 1-6, 2-10, 5-13; N-terminus and C-terminus assumed) here?
**A.** The value was “not detectable”.

**Q.** What about the “abdominal response to colorectal distension” value (Male Wistar rats) of the same compound?
**A.** The value was “Significant decreases in abdominal response”.

**Q.** What about the “gastrointestinal motility upon chronic dosing” value (CD1 female mice) of the same compound?
**A.** Its value is “effective”.

**Q.** And the bioavailability [1]?
**A.** Its bioavailability is under 0.11%.
